From patent publication US9604933B2, “Pyrazolochalcones as potential anticancer agents” (COUNCIL OF SCIENTIFIC AND INDUSTRIAL RESEARCH, priority 2013, dated 2017)
Read-outs that look alike come from different tables or passages of the source.

How the values were obtained:
CCRF-CEM = experiment: NCI SRB cytotoxicity, leukemia CCRF-CEM; assay type: cell-based; conditions: Homo sapiens, 48 h exposure
How it was run: (§1)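 Sulforhodamine B staining quantified cell growth following 48 h of continuous compound contact. DMSO served as vehicle control.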

RPMI-8226 = experiment: NCI SRB cytotoxicity, leukemia RPMI-8226; assay type: cell-based; conditions: Homo sapiens, 48 h exposure
How it was run: as §1

A549/ATCC = experiment: NCI SRB cytotoxicity, non-small cell lung A549/ATCC; assay type: cell-based; conditions: Homo sapiens, 48 h exposure
How it was run: as §1

HOP-62 = experiment: NCI SRB cytotoxicity, non-small cell lung HOP-62; assay type: cell-based; conditions: Homo sapiens, 48 h exposure
How it was run: as §1

NCI-H23 = experiment: NCI SRB cytotoxicity, non-small cell lung NCI-H23; assay type: cell-based; conditions: Homo sapiens, 48 h exposure
How it was run: as §1

NCIH322M = experiment: NCI SRB cytotoxicity, non-small cell lung NCIH322M; assay type: cell-based; conditions: Homo sapiens, NCI-H322M, 48 h exposure
How it was run: as §1

NCI-H460 = experiment: NCI SRB cytotoxicity, non-small cell lung NCI-H460; assay type: cell-based; conditions: Homo sapiens, 48 h exposure
How it was run: as §1

NCI-H522 = experiment: NCI SRB cytotoxicity, non-small cell lung NCI-H522; assay type: cell-based; conditions: Homo sapiens, 48 h exposure
How it was run: as §1

HCT-116 = experiment: NCI SRB cytotoxicity, colon HCT-116; assay type: cell-based; conditions: Homo sapiens, 48 h exposure
How it was run: as §1

KM12 = experiment: NCI SRB cytotoxicity, colon KM12; assay type: cell-based; conditions: Homo sapiens, 48 h exposure
How it was run: as §1

SW-620 = experiment: NCI SRB cytotoxicity, colon SW-620; assay type: cell-based; conditions: Homo sapiens, 48 h exposure
How it was run: as §1

SF-268 = experiment: NCI SRB cytotoxicity, CNS SF-268; assay type: cell-based; conditions: Homo sapiens, 48 h exposure
How it was run: as §1

SNB-75 = experiment: NCI SRB cytotoxicity, CNS SNB-75; assay type: cell-based; conditions: Homo sapiens, 48 h exposure
How it was run: as §1

LOX IMVI = experiment: NCI SRB cytotoxicity, melanoma LOX IMVI; assay type: cell-based; conditions: Homo sapiens, 48 h exposure
How it was run: as §1

MDA-MB-435 [1] = experiment: NCI SRB cytotoxicity, melanoma MDA-MB-435; assay type: cell-based; conditions: Homo sapiens, Melanoma panel MDA-MB-435, 48 h exposure
How it was run: as §1

SK-MEL-28 = experiment: NCI SRB cytotoxicity, melanoma SK-MEL-28; assay type: cell-based; conditions: Homo sapiens, 48 h exposure
How it was run: as §1

SK-MEL-5 = experiment: NCI SRB cytotoxicity, melanoma SK-MEL-5; assay type: cell-based; conditions: Homo sapiens, 48 h exposure
How it was run: as §1

UACC-257 = experiment: NCI SRB cytotoxicity, melanoma UACC-257; assay type: cell-based; conditions: Homo sapiens, 48 h exposure
How it was run: as §1

IGROV1 = experiment: NCI SRB cytotoxicity, ovarian IGROV1; assay type: cell-based; conditions: Homo sapiens, IGROV-1, 48 h exposure
How it was run: as §1

OVCAR-4 = experiment: NCI SRB cytotoxicity, ovarian OVCAR-4; assay type: cell-based; conditions: Homo sapiens, 48 h exposure
How it was run: as §1

OVCAR-5 = experiment: NCI SRB cytotoxicity, ovarian OVCAR-5; assay type: cell-based; conditions: Homo sapiens, 48 h exposure
How it was run: as §1

786-0 = experiment: NCI SRB cytotoxicity, renal 786-0; assay type: cell-based; conditions: Homo sapiens, 48 h exposure
How it was run: as §1

A498 = experiment: NCI SRB cytotoxicity, renal A498; assay type: cell-based; conditions: Homo sapiens, 48 h exposure
How it was run: as §1

CAKI-1 = experiment: NCI SRB cytotoxicity, renal CAKI-1; assay type: cell-based; conditions: Homo sapiens, 48 h exposure
How it was run: as §1

RXF 393 = experiment: NCI SRB cytotoxicity, renal RXF 393; assay type: cell-based; conditions: Homo sapiens, 48 h exposure
How it was run: as §1

TK-10 = experiment: NCI SRB cytotoxicity, renal TK-10; assay type: cell-based; conditions: Homo sapiens, 48 h exposure
How it was run: as §1

UO-31 = experiment: NCI SRB cytotoxicity, renal UO-31; assay type: cell-based; conditions: Homo sapiens, 48 h exposure
How it was run: as §1

HS 578T = experiment: NCI SRB cytotoxicity, breast HS 578T; assay type: cell-based; conditions: Homo sapiens, 48 h exposure
How it was run: as §1

MDA-MB-435 [2] = experiment: NCI SRB cytotoxicity, breast panel MDA-MB-435; assay type: cell-based; conditions: Homo sapiens, 48 h exposure
How it was run: as §1

Leukemia = experiment: NCI SRB cytotoxicity, leukemia panel average; assay type: cell-based, human; conditions: average of cell lines
How it was run: (§2)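 Dose–response measured per cell line at ≥5 concentrations (10-fold steps) under 48 h continuous exposure. Cell growth assessed by SRB protein assay; GI50, TGI and LC50 computed against DMSO control.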

Non-small cell lung = experiment: NCI SRB cytotoxicity, non-small cell lung panel average; assay type: cell-based, human; conditions: average of cell lines
How it was run: as §2

Ovarian = experiment: NCI SRB cytotoxicity, ovarian panel average; assay type: cell-based, human; conditions: average of cell lines
How it was run: as §2

Prostate = experiment: NCI SRB cytotoxicity, prostate panel average; assay type: cell-based, human; conditions: average of cell lines
How it was run: as §2

Breast = experiment: NCI SRB cytotoxicity, breast panel average; assay type: cell-based, human; conditions: average of cell lines
How it was run: as §2

human tumor cell lines = experiment: NCI SRB cytotoxicity, all fifty nine human tumor cell lines; assay type: cell-based; set-up: Log10 TGI mean graph midpoint (MG_MID): unit not given here; conditions: for GI50: Homo sapiens
How it was run: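 NCI protocol: each compound tested at a minimum of five 10-fold dilutions with 48 h continuous exposure, growth estimated by sulforhodamine B protein staining. GI50, TGI (0% growth) and LC50 derived against DMSO control; growth expressed as percent of untreated control cells.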

[3] = Homo sapiens, read-out: Log10 LC50 (concentration in mol/L causing 50% cell death) (converted)

`COc1cc(-c2cc(/C=C/C(=O)c3ccc(F)c(F)c3)[nH]n2)cc(OC)c1OC` [13e, (E)-1-(3,4-difluorophenyl)-3-(3-(3,4,5-trimethoxyphenyl)-1H-pyrazol-5-yl)prop-2-en-1-one] showed a GI50 (CCRF-CEM) of 3.8 µM, a GI50 (RPMI-8226) of 1760 nM and a GI50 (A549/ATCC) of 2430 nM. For the same compound, the GI50 (HOP-62) was 4.39 µM, the GI50 (NCI-H23) was 2600 nM and the GI50 (NCIH322M) was 3.37 µM. The GI50 (NCI-H460) was 2960 nM, the GI50 (NCI-H522) was 1570 nM and the GI50 (HCT-116) was 4 µM. The GI50 (KM12) was 3.06 µM, the GI50 (SW-620) was 3.42 µM and the GI50 (SF-268) was 3.15 µM. It also gave a GI50 (SNB-75) of 2900 nM, a GI50 (LOX IMVI) of 3.18 µM and a GI50 (MDA-MB-435 [1]) of 2880 nM. The GI50 (SK-MEL-28) was 5.31 µM, the GI50 (SK-MEL-5) was 2270 nM and the GI50 (UACC-257) was 1750 nM. The GI50 (IGROV1) was 3.62 µM, the GI50 (OVCAR-4) was 2200 nM and the GI50 (OVCAR-5) was 4.48 µM. It also gave a GI50 (786-0) of 3.35 µM, a GI50 (A498) of 2110 nM and a GI50 (CAKI-1) of 2980 nM. It also gave a GI50 (RXF 393) of 2050 nM, a GI50 (TK-10) of 2290 nM and a GI50 (UO-31) of 2630 nM. The GI50 (HS 578T) was 3.58 µM, the GI50 (MDA-MB-435 [2]) was 2220 nM and the CC50 (Leukemia; [3]) was 0.0001 mol/L. For the same compound, the “Log10 GI50 (concentration in mol/L causing 50% growth inhibition)” value (Leukemia) was −5.57 mol/L, the “Log10 TGI (concentration in mol/L causing total growth inhibition (0% growth))” value (Leukemia) was −4.76 mol/L and the LC50 (Non-small cell lung; [3]) was 87.1 µM. For the same compound, the “Log10 GI50 (concentration in mol/L causing 50% growth inhibition)” value (Non-small cell lung) was −5.54 mol/L, the “Log10 TGI (concentration in mol/L causing total growth inhibition (0% growth))” value (Non-small cell lung) was −4.75 mol/L and the CC50 (Ovarian; [3]) was 89.1 µM. The “Log10 GI50 (concentration in mol/L causing 50% growth inhibition)” value (Ovarian) was −5.5 mol/L, the “Log10 TGI (concentration in mol/L causing total growth inhibition (0% growth))” value (Ovarian) was −4.45 mol/L and the CC50 (Prostate; [3]) was 0.0001 mol/L. For the same compound, the “Log10 GI50 (concentration in mol/L causing 50% growth inhibition)” value (Prostate) was −5.78 mol/L, the “Log10 TGI (concentration in mol/L causing total growth inhibition (0% growth))” value (Prostate) was −5.24 mol/L and the CC50 (Breast; [3]) was 97.7 µM. The “Log10 GI50 (concentration in mol/L causing 50% growth inhibition)” value (Breast) was −5.56 mol/L, the “Log10 TGI (concentration in mol/L causing total growth inhibition (0% growth))” value (Breast) was −4.83 mol/L and the GI50 (human tumor cell lines; across fifty nine cell lines in nine cell panels, read-out: GI50 value range) was 180 to 29200 nM. The GI50 (human tumor cell lines; against human tumor cell lines, read-out: Log10 GI50 mean graph midpoint (MG_MID) (converted)) was 2820 nM, the cytotoxicity (human tumor cell lines; against cancer cell lines, in words) was “significant cytotoxicity” and the “Log10 TGI mean graph midpoint (MG_MID)” value (human tumor cell lines; against human tumor cell lines) was −4.74. For the same compound, the LC50 (human tumor cell lines; against human tumor cell lines, read-out: Log10 LC50 mean graph midpoint (MG_MID) (converted)) was 81.3 µM.
